Data: patent US10807992B2, “Single enantiomer antiparasitic compounds” (priority 2017, dated 2020)
Where two headings read alike, the source gives them in different places.

Tested on: Aedes aegypti
Assay: In vitro contact activity against adult mosquitoes (coated vial)
Description: Aedes aegypti (Louisiana Biologicals Inc., New Orleans, La.) eggs were allowed to hatch, close, and age between 3-5 days in an environmental chamber at 26° C., 80% humidity with light/dark cycles.
For mosquito assays, an aliquot from each compound stock was added to an acetone/triton solution to achieve the desired top doses for the study. Serial dilutions were conducted from the top dose (i.e. 50 ppm) to achieve the desired titration range for EC50 and EC90 determination. The final DMSO concentration in each test vial was 0.5%. A 459 μL aliquot of each compound formulation was transferred to a vial and vials were immediately placed on an unheated roller unit to allow for an even coating of the vial walls. The vials were loosely capped and allowed to dry for a minimum of four hours in a chemical fume hood.
For both contact and ingestion assays, five female Aedes aegypti adults were added to each vial or cage. The test vials for contact assays were held in an environmental chamber at 24° C., 80% humidity with light/dark cycles (12 hours each). The cages for mosquito ingestion assays were held in a temperature-controlled artificial feeding apparatus to allow continual access to organic bovine blood containing the desired concentration of compound. Fresh aliquots of compound-spiked bovine blood were provided daily for the duration of the study.
Mosquitoes showing no movement or mosquitoes that were knocked down were noted as dead. Results from trial 1 and trial 2 contact assays are shown in Tables 12 and 13, respectively and the results from trial 3 mosquito ingestion assay is shown in table 14.
For the mosquito contact and ingestion assays, each replicate contained 5 mosquitoes. For ease of calculation, the two replicates were added to equal a total of 10 mosquitoes.

Structure (SMILES): O=C(CC(F)(F)F)N1CC2(C1)OCc1cc(C3=NS[C@](c4cc(Cl)c(F)c(Cl)c4)(C(F)(F)F)C3)ccc12 [C1 (R) enantiomer, (R)-1-[6-[5-(3,5-dichloro-4-fluoro-phenyl)-5-(trifluoromethyl)-4H-isothiazol-3-yl]spiro[1H-isobenzofuran-3,3′-azetidine]-1′-yl]-3,3,3-trifluoro-propan-1-one]
- mortality at 0.049 µM (0.5 h, read-out: % Mortality R1 + R2, Trial 1, contact assay, dose 0.049 μM, 0.5 Hr): 0%
- mortality at 0.2 µM (0.5 h, read-out: % Mortality R1 + R2, Trial 1, contact assay, dose 0.20 μM, 0.5 Hr): 0%
- mortality at 0.78 µM (0.5 h, read-out: % Mortality R1 + R2, Trial 1, contact assay, dose 0.78 μM, 0.5 Hr): 0%
- mortality at 3.125 µM (0.5 h, read-out: % Mortality R1 + R2, Trial 1, contact assay, dose 3.125 μM, 0.5 Hr): 0%
- mortality at 12.5 µM (0.5 h, read-out: % Mortality R1 + R2, Trial 1, contact assay, dose 12.5 μM, 0.5 Hr): 0%
- mortality at 50 µM (0.5 h, read-out: % Mortality R1 + R2, Trial 1, contact assay, dose 50 μM, 0.5 Hr): 0%
- mortality at 0.049 µM (0.5 h, read-out: % Mortality R1 + R2, Trial 2, contact assay, dose 0.049 μM, 0.5 Hr): 0%
- mortality at 0.2 µM (0.5 h, read-out: % Mortality R1 + R2, Trial 2, contact assay, dose 0.20 μM, 0.5 Hr): 0%
- mortality at 0.78 µM (0.5 h, read-out: % Mortality R1 + R2, Trial 2, contact assay, dose 0.78 μM, 0.5 Hr): 0%
- mortality at 3.125 µM (0.5 h, read-out: % Mortality R1 + R2, Trial 2, contact assay, dose 3.125 μM, 0.5 Hr): 0%
- mortality at 12.5 µM (0.5 h, read-out: % Mortality R1 + R2, Trial 2, contact assay, dose 12.5 μM, 0.5 Hr): 0%
- mortality at 50 µM (0.5 h, read-out: % Mortality R1 + R2, Trial 2, contact assay, dose 50 μM, 0.5 Hr): 0%
- mortality at 0.049 µM (1 h, read-out: % Mortality R1 + R2, Trial 1, contact assay, dose 0.049 μM, 1 hr): 0%
- mortality at 0.2 µM (1 h, read-out: % Mortality R1 + R2, Trial 1, contact assay, dose 0.20 μM, 1 hr): 0%
- mortality at 0.78 µM (1 h, read-out: % Mortality R1 + R2, Trial 1, contact assay, dose 0.78 μM, 1 hr): 0%
- mortality at 3.125 µM (1 h, read-out: % Mortality R1 + R2, Trial 1, contact assay, dose 3.125 μM, 1 hr): 0%
- mortality at 12.5 µM (1 h, read-out: % Mortality R1 + R2, Trial 1, contact assay, dose 12.5 μM, 1 hr): 0%
- mortality at 50 µM (1 h, read-out: % Mortality R1 + R2, Trial 1, contact assay, dose 50 μM, 1 hr): 0%
- mortality at 0.049 µM (1 h, read-out: % Mortality R1 + R2, Trial 2, contact assay, dose 0.049 μM, 1 hr): 0%
- mortality at 0.2 µM (1 h, read-out: % Mortality R1 + R2, Trial 2, contact assay, dose 0.20 μM, 1 hr): 0%
- mortality at 0.78 µM (1 h, read-out: % Mortality R1 + R2, Trial 2, contact assay, dose 0.78 μM, 1 hr): 0%
- mortality at 3.125 µM (1 h, read-out: % Mortality R1 + R2, Trial 2, contact assay, dose 3.125 μM, 1 hr): 0%
- mortality at 12.5 µM (1 h, read-out: % Mortality R1 + R2, Trial 2, contact assay, dose 12.5 μM, 1 hr): 0%
- mortality at 50 µM (1 h, read-out: % Mortality R1 + R2, Trial 2, contact assay, dose 50 μM, 1 hr): 0%
- mortality at 0.049 µM (6 h, read-out: % Mortality R1 + R2, Trial 1, contact assay, dose 0.049 μM, 6 hr): 0%
- mortality at 0.2 µM (6 h, read-out: % Mortality R1 + R2, Trial 1, contact assay, dose 0.20 μM, 6 hr): 0%
- mortality at 0.78 µM (6 h, read-out: % Mortality R1 + R2, Trial 1, contact assay, dose 0.78 μM, 6 hr): 0%
- mortality at 3.125 µM (6 h, read-out: % Mortality R1 + R2, Trial 1, contact assay, dose 3.125 μM, 6 hr): 0%
- mortality at 12.5 µM (6 h, read-out: % Mortality R1 + R2, Trial 1, contact assay, dose 12.5 μM, 6 hr): 0%
- mortality at 50 µM (6 h, read-out: % Mortality R1 + R2, Trial 1, contact assay, dose 50 μM, 6 hr): 0%
- mortality at 0.049 µM (6 h, read-out: % Mortality R1 + R2, Trial 2, contact assay, dose 0.049 μM, 6 hr): 0%
- mortality at 0.2 µM (6 h, read-out: % Mortality R1 + R2, Trial 2, contact assay, dose 0.20 μM, 6 hr): 0%
- mortality at 0.78 µM (6 h, read-out: % Mortality R1 + R2, Trial 2, contact assay, dose 0.78 μM, 6 hr): 0%
- mortality at 3.125 µM (6 h, read-out: % Mortality R1 + R2, Trial 2, contact assay, dose 3.125 μM, 6 hr): 0%
- mortality at 12.5 µM (6 h, read-out: % Mortality R1 + R2, Trial 2, contact assay, dose 12.5 μM, 6 hr): 0%
- mortality at 50 µM (6 h, read-out: % Mortality R1 + R2, Trial 2, contact assay, dose 50 μM, 6 hr): 0%
- mortality at 0.049 µM (12 h, read-out: % Mortality R1 + R2, Trial 1, contact assay, dose 0.049 μM, 12 hr): 0%
- mortality at 0.2 µM (12 h, read-out: % Mortality R1 + R2, Trial 1, contact assay, dose 0.20 μM, 12 hr): 0%
- mortality at 0.78 µM (12 h, read-out: % Mortality R1 + R2, Trial 1, contact assay, dose 0.78 μM, 12 hr): 0%
- mortality at 3.125 µM (12 h, read-out: % Mortality R1 + R2, Trial 1, contact assay, dose 3.125 μM, 12 hr): 0%
- mortality at 12.5 µM (12 h, read-out: % Mortality R1 + R2, Trial 1, contact assay, dose 12.5 μM, 12 hr): 0%
- mortality at 50 µM (12 h, read-out: % Mortality R1 + R2, Trial 1, contact assay, dose 50 μM, 12 hr): 30%
- mortality at 0.049 µM (12 h, read-out: % Mortality R1 + R2, Trial 2, contact assay, dose 0.049 μM, 12 hr): 0%
- mortality at 0.2 µM (12 h, read-out: % Mortality R1 + R2, Trial 2, contact assay, dose 0.20 μM, 12 hr): 10%
- mortality at 0.78 µM (12 h, read-out: % Mortality R1 + R2, Trial 2, contact assay, dose 0.78 μM, 12 hr): 10%
- mortality at 3.125 µM (12 h, read-out: % Mortality R1 + R2, Trial 2, contact assay, dose 3.125 μM, 12 hr): 0%
- mortality at 12.5 µM (12 h, read-out: % Mortality R1 + R2, Trial 2, contact assay, dose 12.5 μM, 12 hr): 0%
- mortality at 50 µM (12 h, read-out: % Mortality R1 + R2, Trial 2, contact assay, dose 50 μM, 12 hr): 20%
- mortality at 0.049 µM (24 h, read-out: % Mortality R1 + R2, Trial 1, contact assay, dose 0.049 μM, 24 hr): 0%
- mortality at 0.2 µM (24 h, read-out: % Mortality R1 + R2, Trial 1, contact assay, dose 0.20 μM, 24 hr): 0%
- mortality at 0.78 µM (24 h, read-out: % Mortality R1 + R2, Trial 1, contact assay, dose 0.78 μM, 24 hr): 0%
- mortality at 3.125 µM (24 h, read-out: % Mortality R1 + R2, Trial 1, contact assay, dose 3.125 μM, 24 hr): 0%
- mortality at 12.5 µM (24 h, read-out: % Mortality R1 + R2, Trial 1, contact assay, dose 12.5 μM, 24 hr): 0%
- mortality at 50 µM (24 h, read-out: % Mortality R1 + R2, Trial 1, contact assay, dose 50 μM, 24 hr): 100%
- mortality at 0.049 µM (24 h, read-out: % Mortality R1 + R2, Trial 2, contact assay, dose 0.049 μM, 24 hr): 0%
- mortality at 0.2 µM (24 h, read-out: % Mortality R1 + R2, Trial 2, contact assay, dose 0.20 μM, 24 hr): 0%
- mortality at 0.78 µM (24 h, read-out: % Mortality R1 + R2, Trial 2, contact assay, dose 0.78 μM, 24 hr): 10%
- mortality at 3.125 µM (24 h, read-out: % Mortality R1 + R2, Trial 2, contact assay, dose 3.125 μM, 24 hr): 10%
- mortality at 12.5 µM (24 h, read-out: % Mortality R1 + R2, Trial 2, contact assay, dose 12.5 μM, 24 hr): 60%
- mortality at 50 µM (24 h, read-out: % Mortality R1 + R2, Trial 2, contact assay, dose 50 μM, 24 hr): 100%
- mortality at 0.049 µM (48 h, read-out: % Mortality R1 + R2, Trial 1, contact assay, dose 0.049 μM, 48 hr): 10%
- mortality at 0.2 µM (48 h, read-out: % Mortality R1 + R2, Trial 1, contact assay, dose 0.20 μM, 48 hr): 40%
- mortality at 0.78 µM (48 h, read-out: % Mortality R1 + R2, Trial 1, contact assay, dose 0.78 μM, 48 hr): 20%
- mortality at 3.125 µM (48 h, read-out: % Mortality R1 + R2, Trial 1, contact assay, dose 3.125 μM, 48 hr): 30%
- mortality at 12.5 µM (48 h, read-out: % Mortality R1 + R2, Trial 1, contact assay, dose 12.5 μM, 48 hr): 50%
- mortality at 50 µM (48 h, read-out: % Mortality R1 + R2, Trial 1, contact assay, dose 50 μM, 48 hr): 100%
- mortality at 0.049 µM (48 h, read-out: % Mortality R1 + R2, Trial 2, contact assay, dose 0.049 μM, 48 hr): 20%
- mortality at 0.2 µM (48 h, read-out: % Mortality R1 + R2, Trial 2, contact assay, dose 0.20 μM, 48 hr): 60%
- mortality at 0.78 µM (48 h, read-out: % Mortality R1 + R2, Trial 2, contact assay, dose 0.78 μM, 48 hr): 10%
- mortality at 3.125 µM (48 h, read-out: % Mortality R1 + R2, Trial 2, contact assay, dose 3.125 μM, 48 hr): 20%
- mortality at 12.5 µM (48 h, read-out: % Mortality R1 + R2, Trial 2, contact assay, dose 12.5 μM, 48 hr): 100%
- mortality at 50 µM (48 h, read-out: % Mortality R1 + R2, Trial 2, contact assay, dose 50 μM, 48 hr): 100%
